In patent US20140193802A1, “IDENTIFICATION OF AN ALTERED THERAPEUTIC SUSCEPTIBILITY TO ANTI-HCMV COMPOUNDS AND OF A RESISTANCE AGAINST ANTI-HCMV COMPOUNDS” (priority 2012, published 2014):
Where two headings read alike, the source gives them in different places.

Columns and labels:
Assay type in all cases: cell-based, human cytomegalovirus (HCMV)
[1] = test system: RV-HG UL56-C325Yrev; experiment: GFP-RA, marker transfer revertant
Experimental: (§1) HCMV Fluorescence Reduction Assay (GFP-RA)
(§2) The susceptibilities of recombinant HCMV laboratory strains expressing GFP were determined by a GFP-based fluorescence reduction assay. For standard assays, 1.5×10^4 NHDF cells/well were cultured in black 96-well plates (Greiner Bio-One, Germany) and infected with either HCMV-GFP (MOI, 0.1) or RV-HG (MOI, 0.2 to 0.5). After virus adsorption, the virus inoculum was replaced with 200 μl fresh medium. Thereafter, 100 μl medium containing the test compounds was added to wells of horizontal row G, followed by serial 3-fold dilutions up to row A. All drug concentrations were tested at least in duplicate. Wells of the horizontal row H served as the virus control. Plates were incubated at 37° C. for 7 days. The medium was replaced by 200 μl PBS, and GFP units (GFPU) were determined by a charge-coupled-device-camera-based fluorescence detector (FluoBox; Bayer Technology Services GmbH, Leverkusen, Germany), which captures 96 images simultaneously. Drug effects were calculated as a percentage of reduction in GFPU in the presence of each drug concentration compared to the GFPU determined in the absence of drug. EC50 and EC90 values (drug concentrations producing 50% and 90% reduction in GFPU) were calculated using nonlinear regression curve fit with a variable slope. GraphPad Prism 3.02 or 4.0 software (GraphPad Software Inc., La Jolla, Calif.) was used for all analyses.
(§3) The HCMV AD169-derived bacterial artificial chromosome (BAC) pHG served as the backbone for the construction of the mutant viruses. The markerless introduction of point mutations into pHG was done using a two-step recombination protocol according to the en passant method. Briefly, a recombination fragment containing the I-SceI-AphAI cassette from plasmid pEPKan-S was obtained by PCR using primers containing ˜60 bp of homology to the intended integration site in ORF UL56 of BAC pHG and ˜20 bp specific for pEPKan-S. This fragment was electroporated into Escherichia coli GS1783 that harbored the pHG BAC. […] After successful kanamycin selection, all non-HCMV sequences were removed by an intrabacterial ISceI digest and a subsequent second Red recombination, resulting in the scarless repair of the mutated UL56 gene in the background of BAC pHG. The integrity of the generated BACs was confirmed by restriction enzyme digestion and sequencing. To reconstitute virus mutants, the recombinant BACs were transfected into permissive MRC5 cells. At least two independent virus clones per mutation were generated and evaluated.

[2] = test system: RV-HG (wt-HCMV); experiment: HCMV fluorescence reduction assay (GFP-RA)
Experimental: as §1, §2, §3

[3] = test system: RV-HG UL56-V231L; experiment: GFP-RA, marker transfer mutant
Experimental: as §1, §2, §3

[4] = test system: RV-HG UL56-L241P; experiment: GFP-RA, marker transfer mutant
Experimental: as §1, §2, §3

[5] = test system: RV-HG UL56-V236M; experiment: GFP-RA, marker transfer mutant
Experimental: as §1, §2, §3

[6] = test system: RV-HG UL56-C325Y; experiment: GFP-RA, marker transfer mutant
Experimental: as §1, §2, §3

[7] = test system: RV-HG UL56-R369S; experiment: GFP-RA, marker transfer mutant
Experimental: as §1, §2, §3

[8] = test system: RV-HG UL56-R369M; experiment: GFP-RA, marker transfer mutant; settings: for Resistance index (RI) = EC50 indicated RV-HG mutant/EC50 RV-HG wt: RV-HG UL56-R369M vs RV-HG wt
Experimental: as §1, §2, §3

[9] = test system: RV-HG UL56-L241P/R369S; experiment: GFP-RA, marker transfer mutant; settings: for Resistance index (RI) = EC50 indicated RV-HG mutant/EC50 RV-HG wt: RV-HG UL56-L241P/R369S vs RV-HG wt
Experimental: as §1, §2, §3

[10] = test system: RV-HG-UL56 mutants; experiment: GFP-RA, drug susceptibility profile of the virus mutants; settings: fluorescence reduction assays; for BAY 38-4766 and BDCRB with the exception of the strain carrying UL56 R369M
Experimental: as §1, §2
as §3, with “The integrity of the generated BACs was confirmed by restriction enzyme digestion and sequencing.” left out

[11] = Human betaherpesvirus 5, RV-HG UL56-C325Yrev, fluorescence reduction assay, mean ± SD, read-out: EC50
[12] = Human betaherpesvirus 5, RV-HG (wt-HCMV), fluorescence reduction assay, mean ± SD, read-out: EC50
[13] = Human betaherpesvirus 5, RV-HG UL56-V231L, fluorescence reduction assay, mean ± SD, read-out: EC50
[14] = Human betaherpesvirus 5, RV-HG UL56-L241P, fluorescence reduction assay, mean ± SD, read-out: EC50
[15] = Human betaherpesvirus 5, RV-HG UL56-V236M, fluorescence reduction assay, mean ± SD, read-out: EC50
[16] = Human betaherpesvirus 5, RV-HG UL56-C325Y, fluorescence reduction assay, mean ± SD, read-out: EC50
[17] = Human betaherpesvirus 5, RV-HG UL56-R369S, fluorescence reduction assay, mean ± SD, read-out: EC50
[18] = Human betaherpesvirus 5, RV-HG UL56-R369M, fluorescence reduction assay, mean ± SD, read-out: EC50
[19] = Human betaherpesvirus 5, RV-HG UL56-L241P/R369S, fluorescence reduction assay, mean ± SD, read-out: EC50

Q: How did the EC50 [1, 11] turn out when `N#CC1(C(=O)Nc2cc(F)cc(NS(=O)(=O)c3ccc(-c4noc(-c5cccc(N)n5)n4)cc3)c2)CC1` [Formula (X), N-{3-[({4-[5-(6-Aminopyridin-2-yl)-1,2,4-oxadiazol-3-yl]phenyl}sulfonyl)amino]-5-fluorophenyl}-1-cyanocyclopropanecarboxamide] was run?
A: The EC50 was 31.7 ± 2.4 nM.

Q: What about the EC50 [2, 12] of the same molecule?
A: Its EC50 is 14.1 ± 7.9 nM.

Q: What about the EC50 [3, 13] of the same molecule?
A: The EC50 was 7.1 ± 1.2 nM.

Q: And the EC50 [4, 14]?
A: Its EC50 is 18.3 ± 10 nM.

Q: What about the EC50 [5, 15] of the same molecule?
A: The EC50 was 8.6 ± 1.3 nM.

Q: And the EC50 [6, 16]?
A: The EC50 was 36.7 ± 3.9 nM.

Q: And the EC50 [7, 17]?
A: The EC50 was 29.5 ± 13.7 nM.

Q: And the “Resistance index (RI) = EC50 indicated RV-HG mutant/EC50 RV-HG wt” value (“Resistance index” below) ([7]; RV-HG UL56-R369S vs RV-HG wt)?
A: Its value is 2.

Q: And the EC50 [8, 18]?
A: Its EC50 is 96 ± 18 nM.

Q: And the “Resistance index” value [8]?
A: The value was 7.

Q: What about the EC50 [9, 19] of the same molecule?
A: The EC50 was 41.6 ± 18 nM.

Q: What about the “Resistance index” value [9] of the same molecule?
A: Its value is 3.

Q: Which EC50 [1, 11] does the source give for `CC(C)Nc1nc2cc(Cl)c(Cl)cc2n1[C@H]1O[C@@H](CO)[C@H](O)[C@@H]1O` [Maribavir] here?
A: Its EC50 is 180 ± 70 nM.

Q: What about the EC50 [2, 12] of the same molecule?
A: Its EC50 is 180 ± 110 nM.

Q: What about the EC50 [4, 14] of the same molecule?
A: The EC50 was 140 ± 70 nM.

Q: And the EC50 [6, 16]?
A: The EC50 was 290 ± 140 nM.

Q: And the EC50 [7, 17]?
A: Its EC50 is 80 ± 30 nM.

Q: Which EC50 [1, 11] does the source give for `CN(C)c1cccc2c(S(=O)(=O)Nc3ccc(NC(=O)C(C)(C)CO)cc3)cccc12` [BAY384766] here?
A: Its EC50 is 580 ± 60 nM.

Q: What about the EC50 [2, 12] of the same molecule?
A: Its EC50 is 410 ± 150 nM.

Q: What about the “sensitivity of the RV-HG-UL56 mutants compared with the parental wild-type virus RV-HG” value [10] of the same molecule?
A: Its value is “comparably active”.

Q: And the EC50 [3, 13]?
A: The EC50 was 360 ± 80 nM.

Q: What about the EC50 [4, 14] of the same molecule?
A: The EC50 was 340 ± 140 nM.

Q: And the EC50 [5, 15]?
A: Its EC50 is 330 ± 80 nM.

Q: And the EC50 [6, 16]?
A: Its EC50 is 1070 ± 140 nM.

Q: What about the EC50 ([7]; Human betaherpesvirus 5) of the same molecule?
A: The EC50 was 680 ± 130 nM.

Q: And the EC50 ([8]; Human betaherpesvirus 5)?
A: The EC50 was 1750 ± 160 nM.

Q: What about the “Resistance index” value [8] of the same molecule?
A: Its value is 4.

Q: And the EC50 ([9]; Human betaherpesvirus 5)?
A: Its EC50 is 840 ± 310 nM.

Q: What about the “Resistance index” value [9] of the same molecule?
A: The value was 2.

Q: `O=C(O)P(=O)(O)O` [Foscarnet] was tested. Which EC50 [1, 11] did it give?
A: Its EC50 is 178000 ± 12000 nM.

Q: What about the EC50 [2, 12] of the same molecule?
A: Its EC50 is 111000 ± 55000 nM.

Q: What about the “sensitivity of the RV-HG-UL56 mutants compared with the parental wild-type virus RV-HG” value [10] of the same molecule?
A: The value was “did not differ”.

Q: What about the EC50 ([3]; Human betaherpesvirus 5) of the same molecule?
A: Its EC50 is 67000 ± 18000 nM.

Q: And the EC50 [4, 14]?
A: Its EC50 is 115000 ± 71000 nM.

Q: And the EC50 [5, 15]?
A: Its EC50 is 76000 ± 35000 nM.

Q: What about the EC50 [6, 16] of the same molecule?
A: The EC50 was 126000 ± 20000 nM.

Q: And the EC50 [7, 17]?
A: Its EC50 is 61000 ± 21000 nM.

Q: What about the EC50 [8, 18] of the same molecule?
A: Its EC50 is 76000 ± 25000 nM.

Q: And the EC50 [9, 19]?
A: The EC50 was 62000 ± 30000 nM.

Q: What does the source list for `Nc1ccn(C[C@@H](CO)OCP(=O)(O)O)c(=O)n1` [Cidofovir]?
A: EC50 [1, 11]: 320 ± 130 nM; EC50 [2, 12]: 250 ± 170 nM; sensitivity of the RV-HG-UL56 mutants compared with the parental wild-type virus RV-HG [10]: did not differ; EC50 [3, 13]: 90 ± 20 nM; EC50 [4, 14]: 210 ± 90 nM; EC50 [5, 15]: 260 ± 180 nM; EC50 [6, 16]: 350 ± 50 nM; EC50 [7, 17]: 160 ± 50 nM; EC50 [8, 18]: 180 ± 110 nM; EC50 [9, 19]: 200 ± 110 nM

Q: With `Nc1nc2c(ncn2COCCO)c(=O)[nH]1` [Aciclovir] as the molecule, how does the EC50 ([1]; Human betaherpesvirus 5) read?
A: Its EC50 is 55000 ± 18000 nM.

Q: What about the EC50 ([2]; Human betaherpesvirus 5) of the same molecule?
A: Its EC50 is 74000 ± 40000 nM.

Q: And the EC50 [3, 13]?
A: Its EC50 is 29000 ± 9000 nM.

Q: What about the EC50 ([4]; Human betaherpesvirus 5) of the same molecule?
A: The EC50 was 53000 ± 12000 nM.

Q: And the EC50 ([5]; Human betaherpesvirus 5)?
A: Its EC50 is 80000 ± 21000 nM.

Q: And the EC50 ([6]; Human betaherpesvirus 5)?
A: Its EC50 is 49000 ± 16000 nM.

Q: And the EC50 [7, 17]?
A: Its EC50 is 45000 ± 10000 nM.

Q: What about the EC50 [8, 18] of the same molecule?
A: The EC50 was 88000 ± 29000 nM.

Q: And the EC50 [9, 19]?
A: Its EC50 is 81000 ± 33000 nM.

Q: What does the source list for `OC[C@H]1O[C@@H](n2c(Br)nc3cc(Cl)c(Cl)cc32)[C@H](O)[C@@H]1O` [BDCRB]?
A: EC50 ([1]; RV-HG UL56-C325Yrev, fluorescence reduction assay, mean ± SD, read-out: EC50): 290 ± 40 nM; EC50 ([2]; RV-HG (wt-HCMV), fluorescence reduction assay, mean ± SD, read-out: EC50): 330 ± 120 nM; sensitivity of the RV-HG-UL56 mutants compared with the parental wild-type virus RV-HG [10]: comparably active; EC50 ([3]; RV-HG UL56-V231L, fluorescence reduction assay, mean ± SD, read-out: EC50): 210 ± 40 nM; EC50 ([4]; RV-HG UL56-L241P, fluorescence reduction assay, mean ± SD, read-out: EC50): 270 ± 40 nM; EC50 ([5]; RV-HG UL56-V236M, fluorescence reduction assay, mean ± SD, read-out: EC50): 170 ± 30 nM; EC50 ([6]; RV-HG UL56-C325Y, fluorescence reduction assay, mean ± SD, read-out: EC50): 300 ± 40 nM; EC50 ([7]; RV-HG UL56-R369S, fluorescence reduction assay, mean ± SD, read-out: EC50): 190 ± 20 nM; EC50 ([8]; RV-HG UL56-R369M, fluorescence reduction assay, mean ± SD, read-out: EC50): 110 ± 50 nM; EC50 ([9]; RV-HG UL56-L241P/R369S, fluorescence reduction assay, mean ± SD, read-out: EC50): 300 ± 140 nM
